For data set [1], the system named is NCI-H1703. Briefly: Induction of ferroptosis in human NCI-H1703 cells assessed as cell viability incubated for 72 hrs in presence of ferrostatin-1 by CellTiter-Glo luminescent cell viability assay. The data set is classed as functional, cell-based. To be noted: NCI-H1703, 72 h.
In data set [2] the test system is NCI-H1703. Briefly: Induction of ferroptosis in human NCI-H1703 cells assessed as cell viability incubated for 72 hrs by CellTiter-Glo luminescent cell viability assay. The data set is classed as functional, cell-based. The following applies: NCI-H1703, 72 h. (In general: ATP-based viability assays read luminescence as a measure of living cells.)
Data set [3] can be described thus: Metabolic stability in mouse liver microsomes assessed as unbound intrinsic clearance. The data set is classed as ADME, Microsome. A general note: Liver microsomes are a subcellular fraction often used to study metabolism.
Data set [4] can be described thus: Stability in human plasma assessed as half life. The data set is classed as ADME, cell-free.
A short description of data set [5]: Stability in mouse plasma assessed as half life. The data set is classed as ADME, cell-free.
Data set [6] is described as follows: Metabolic stability in human liver microsomes assessed as unbound intrinsic clearance. The data set is classed as ADME, Microsome.
Data set [7] is described as follows: Unbound fraction in human plasma. The data set is classed as ADME, cell-free.
A short description of data set [8]: Unbound fraction in mouse plasma. The data set is classed as ADME, cell-free.
The nature of data set [9]: Aqueous solubility of the compound at pH 7. The data set is classed as physicochemical.
In data set [10] the target is Phospholipid hydroperoxide glutathione peroxidase GPX4 (Mus musculus) (UniProt O70325). Briefly: Target engagement at GPX4 in mouse 4T1 cells assessed as mass change between covalently bound protein and unbound protein at 0.01 to 1 ug/ml measured after 2 hrs by Western blot analysis. The data set is classed as cell-based. To be noted: dose 0.01-1 µg/ml. In general terms: In western blotting, separated proteins are transferred to a membrane and probed.
Chain of Phospholipid hydroperoxide glutathione peroxidase GPX4 (Mus musculus) (O70325 whole entry): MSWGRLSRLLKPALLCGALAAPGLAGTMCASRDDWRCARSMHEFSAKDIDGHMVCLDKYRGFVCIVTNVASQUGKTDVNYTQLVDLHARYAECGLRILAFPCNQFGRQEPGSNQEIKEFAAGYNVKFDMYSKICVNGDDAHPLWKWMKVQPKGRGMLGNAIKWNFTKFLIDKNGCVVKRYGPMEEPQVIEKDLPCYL

Data set [11] in a line: Plasma clearance in iv dosed mouse. The data set is classed as ADME, organism-based.
Data set [12] can be described thus: Half life in CB17 SCID-Beige mouse subcutaneously inoculated with WSUDLCL2 cells at 30 mg/kg, ip. The following applies: in vivo. The data set is classed as ADME, organism-based.
A short description of data set [13]: Cmax in CB17 SCID-Beige mouse subcutaneously inoculated with WSUDLCL2 cells at 30 mg/kg, ip. Also noted: dose 30 mg/kg, route ip. The data set is classed as ADME, organism-based. To be noted: in vivo.
Data set [14] in a line: AUC in CB17 SCID-Beige mouse subcutaneously inoculated with WSUDLCL2 cells at 30 mg/kg, ip. The data set is classed as ADME, organism-based. Also noted: dose 30 mg/kg, route ip. The following applies: in vivo.
Data set [15] is described as follows: Aqueous solubility of the compound at pH 1. The data set is classed as physicochemical.

Active and inactive are the calls of the source. No cut-off for these calls is given here. Where only a bound is given, the exact number is not on record here.

As usually defined, the EC50 is the concentration that produces a half-maximal response. Consider `COC(=O)[C@H]1Cc2c([nH]c3ccccc23)[C@H](c2ccccc2)N1C(=O)CCl`, for which the EC50 was over 10000 nM in the data set with NCI-H1703 [1] and 116 nM in the data set on NCI-H1703 [2].
The half-life is the time in which the quantity being followed falls by half. On to `COC(=O)[C@H]1Cc2c([nH]c3ccccc23)[C@H](c2ccc(C(F)(F)F)nc2)N1C(=O)CCl`, for which the CL free in data set [3] came to 1060 mL/min/kg; in data set [6] it was 147 mL/min/kg. Besides, the results for the half-life in data set [4] and in [5] were 2.63 h and 2.12 h, respectively. The 50% effective concentration (EC50) with NCI-H1703 [1] is over 10000 nM; with NCI-H1703 [2] it was 42 nM.
By fraction unbound is commonly meant the share of the substance not bound to proteins or other matrix. High values mean weak binding, low ones extensive binding. In the case of `COC(=O)[C@H]1Cc2c([nH]c3ccccc23)[C@H](C2CCOCC2)N1C(=O)CCl`, the values for the CL free in data set [3] and in data set [6] were 353 mL/min/kg and 33 mL/min/kg, respectively. Also, the unbound share (fraction unbound) came out at 0.31 in data set [7] and 0.24 in data set [8]. For the same compound, the EC50 in the data set on NCI-H1703 [1] is over 10000 nM; in the data set with NCI-H1703 [2], 3130 nM.
A word on the solubility: it is the concentration that dissolves in the medium under given conditions. Regarding `COC(=O)[C@H]1Cc2c([nH]c3ccccc23)[C@H](c2ccc(S(C)(=O)=O)nc2)N1C(=O)CCl`, the CL free in data set [3] was 235 mL/min/kg; in data set [6], 28.3 mL/min/kg. Besides, the half-life in [4] was 3.33 h; in [5], 2.77 h. Moreover, the EC50 with NCI-H1703 [1] stood at 2450 nM; in the data set with NCI-H1703 [2], 118 nM. Besides, the solubility in data set [9] was over 200 µM.
As to `O=C([C@H]1Cc2c([nH]c3ccccc23)[C@H](c2ccccc2)N1C(=O)CCl)N1CCCC1`, the CL free in data set [3] is 1640 mL/min/kg; in data set [6], 292 mL/min/kg. Further, the unbound share (fraction unbound) in [7] was 0.061. The results for the half-life in [4] and in data set [5] were 7.43 h and 3.6 h, respectively. For the same compound, the half-maximal effective concentration (EC50) in the data set with NCI-H1703 [1] was over 10000 nM; in the data set on NCI-H1703 [2], 1760 nM.
Turning to `COC(=O)c1ccc([C@@H]2c3[nH]c4ccccc4c3C[C@H](C(=O)OC)N2C(=O)CCl)cc1`, the outcome in data set [10] was Active.
For `COC(=O)[C@H]1Cc2c([nH]c3ccccc23)[C@H](c2ccc(S(C)(=O)=O)cn2)N1C(=O)CCl`, the CL free in data set [3] was found to be 348 mL/min/kg; in data set [6], 35 mL/min/kg. Further, the half-life amounted to 4.03 h in [4] and 1.33 h in data set [5]. Moreover, the results for the 50% effective concentration (EC50) in the data set with NCI-H1703 [1] and in the data set with NCI-H1703 [2] were over 10000 nM and 973 nM, respectively.
With `C#CC(=O)N1[C@@H](c2ccccc2)c2[nH]c3ccccc3c2C[C@@H]1C(=O)OC`, the half-life worked out at 0.4 h in [4] and 0.317 h in data set [5]. Besides, in the data set on NCI-H1703 [2], the half-maximal effective concentration (EC50) stood at 157 nM.
With `COC(=O)[C@H]1Cc2c([nH]c3ccccc23)[C@H](c2ccc(F)cc2Cl)N1C(=O)CCl`, the values for the EC50 in the data set on NCI-H1703 [1] and in the data set on NCI-H1703 [2] were over 10000 nM and 28 nM, respectively.
In the case of `COC(=O)[C@H]1Cc2c([nH]c3ccccc23)[C@H](Cc2ccccc2)N1C(=O)CCl`, the CL free in data set [3] was determined as 4725 mL/min/kg; in data set [6] it was 477 mL/min/kg. For the same compound, in [7], the fraction unbound came to 0.026. The half-life in data set [4] came out at 6.1 h; in [5], 2.7 h. Further, the EC50 is over 10000 nM in the data set on NCI-H1703 [1] and 984 nM in the data set with NCI-H1703 [2].
As to `CN(C)C(=O)[C@H]1Cc2c([nH]c3ccccc23)[C@H](c2ccccc2)N1C(=O)CCl`, the EC50 in the data set with NCI-H1703 [1] amounted to 3740 nM; in the data set on NCI-H1703 [2], 737 nM.
Turning to `COC(=O)[C@H]1Cc2c([nH]c3ccccc23)[C@H](c2ccc(OC(F)(F)F)cc2)N1C(=O)CCl`, the EC50 was found to be 4270 nM with NCI-H1703 [1] and 75 nM in the data set with NCI-H1703 [2].
On to `COC(=O)[C@H]1Cc2c([nH]c3ccccc23)C(c2ccc(F)cc2C(F)(F)F)N1C(=O)CCl` (single isomer, unassigned), for which the EC50 in the data set on NCI-H1703 [1] is over 10000 nM; in the data set on NCI-H1703 [2], 64 nM.
The corresponding values for `COC(=O)[C@H]1Cc2c([nH]c3ccccc23)[C@H](c2ccc(F)cc2F)N1C(=O)CCl` are 3950 nM and 107 nM.
Take `CC(C)OC(=O)[C@H]1Cc2c([nH]c3ccccc23)[C@H](c2ccccc2)N1C(=O)CCl`: the figures for the CL free in data set [3] and in [6] were 5810 mL/min/kg and 505 mL/min/kg, respectively. This compound came in with an unbound share (fraction unbound) in data set [7] of 0.011. The results for the half-life in data set [4] and in [5] were 6.18 h and 2.77 h, respectively. For the same compound, the EC50 is over 10000 nM in the data set with NCI-H1703 [1] and 265 nM with NCI-H1703 [2].
On to `COC(=O)c1ccc([C@H]2c3[nH]c4ccccc4c3CCN2C(=O)CCl)cc1`, for which the half-life in data set [4] amounted to 1 h; in data set [5] it was 0.2 h. Moreover, in the data set on NCI-H1703 [2], the concentration for a half-maximal effect (EC50) was 1390 nM.
Take `COC(=O)[C@H]1Cc2c([nH]c3ccccc23)[C@H](c2ccc(OC)cc2)N1C(=O)CCl`: the CL free in data set [3] came to 2050 mL/min/kg; in [6] it was 375 mL/min/kg. The same compound came in with a fraction unbound in [7] of 0.068. Besides, the half-life in [4] is 13 h; in data set [5], 4.02 h. For the same compound, the figures for the concentration giving a half-maximal response (EC50) in the data set with NCI-H1703 [1] and with NCI-H1703 [2] were over 10000 nM and 127 nM, respectively.
Turning to `Cc1noc([C@H]2Cc3c([nH]c4ccccc34)[C@H](c3ccc(S(C)(=O)=O)cc3)N2C(=O)CCl)n1`, the CL free is 243 mL/min/kg in data set [3] and 31.7 mL/min/kg in data set [6]. Besides, the half-life in [4] was found to be 2.92 h; in data set [5], 1.85 h. Besides, the concentration giving a half-maximal response (EC50) was 2340 nM in the data set on NCI-H1703 [1] and 37 nM with NCI-H1703 [2].
Regarding `C=CC(=O)N1[C@@H](c2ccccc2)c2[nH]c3ccccc3c2C[C@@H]1C(=O)OC`, the CL free in data set [3] was determined as 905 mL/min/kg; in data set [6], 76.7 mL/min/kg. Also, the half-life was 0.933 h in [4] and 1.05 h in data set [5]. Moreover, in the data set on NCI-H1703 [2], the EC50 was over 10000 nM.
On to `Cc1noc([C@H]2Cc3c([nH]c4ccccc34)[C@H](c3ccccc3)N2C(=O)CCl)n1`, for which the CL free in data set [3] came out at 910 mL/min/kg; in [6], 118 mL/min/kg. Moreover, in [7], the free fraction (fraction unbound) amounted to 0.013. In addition, the half-life came to 6.73 h in data set [4] and 2.68 h in data set [5]. In addition, the EC50 with NCI-H1703 [1] is over 10000 nM; in the data set on NCI-H1703 [2], 44 nM.
By clearance is commonly meant a measure of how efficiently the substance is removed, as volume per time. Low readings indicate inefficient removal, high ones efficient removal. Turning to `COC(=O)[C@H]1Cc2c([nH]c3ccccc23)[C@H](c2ccccc2)N1C(C)=O`, the CL free was determined as 2682 mL/min/kg in data set [3] and 183 mL/min/kg in [6]. Also, the half-life was over 16 h in data set [4] and 13.7 h in [5]. The compound further had a clearance in data set [11] of 50 mL/min/kg.
Consider `COC(=O)[C@H]1Cc2c([nH]c3ccccc23)[C@H](c2cccc(S(C)(=O)=O)c2)N1C(=O)CCl`, for which the CL free in data set [3] stood at 563 mL/min/kg; in [6], 45 mL/min/kg. Further, the results for the half-life in data set [4] and in data set [5] were 4.23 h and 0.167 h, respectively. Also, the EC50 was 5660 nM in the data set on NCI-H1703 [1] and 570 nM with NCI-H1703 [2].
Usually Cmax stands for the peak of the concentration-time curve. On to `COC(=O)[C@H]1Cc2c([nH]c3ccccc23)[C@H](c2ccc(C(F)(F)F)cc2)N1C(=O)CCl`, for which the half-life in data set [12] is 1.4 h; in [4], over 16 h; in data set [5] it was 4.38 h. For the same compound, the figures for the CL free in data set [3] and in data set [6] were 2962 mL/min/kg and 1420 mL/min/kg, respectively. Besides, the peak level in data set [13] (Cmax) was 410 ng/mL. In data set [14], this compound came in with an AUC of 1.53 µg/h/mL. Besides, the EC50 with NCI-H1703 [1] is 3250 nM; with NCI-H1703 [2], 37 nM. The solubility in [15] and in [9] was under 0.8 µM each time.

(Values after ChEMBL document CHEMBL5375942, “Discovery of a Potent Chloroacetamide GPX4 Inhibitor with Bioavailability to Enable Target Engagement in Mice, a Potential Tool Compound for Inducing Ferroptosis In Vivo” (J Med Chem, 2023).)
